The values that follow come from US20070207975A1, “Materials and methods for treating and preventing Her-2/neu overexpressing, FAS-elevated cancer cells” (EVANSTON NORTHWESTERN HEALTHCARE, priority 2006, published 2007).

Structures are written as SMILES.

One assay relates to BT-474 cells. In words: TUNEL apoptosis assay, BT-474. Type of assay: cell-based, human. As for the experimental part: FIG. 6. […] The immunofluorescence photomicrographs of cells undergoing apoptosis (green staining) and the corresponding DAPI-counterstained photomicrographs are shown. […] Equal amounts of total protein (50 μg per lane) were subjected to Western blot analyses with a specific antibody against the p85 fragment of PARP, and then re-probed with a β-actin antibody. […] For each pair of columns, the height of the columns on the left represents the sum of the effect of each agent alone and, therefore, the expected apoptotic cell death if their effect was additive when used in combination. The total height of the columns on the right indicates the observed apoptosis when the agents were used in combination. […] A) Cell surface expression of Her-2/neu protein in BT-474 and SK-Br3 cells was determined by flow cytometry using a mouse anti-Her-2/neu antibody directed against the extracellular domain of the p185^Her-2/neu oncoprotein (clone Ab-5; Oncogene Research Products; San Diego, Calif.). […] The mean fluorescence signal associated with cells for labeled p185^Her-2/neu was quantified using the Geo Mean (GM) fluorescence parameter provided with the software. […] Immunoreactive bands were detected by enhanced chemiluminescence reagent (Pierce, Rockford, Ill.). […] Densitometric values of protein bands were quantified using Scion Imaging Software (Scion Corp., Frederick, Md.).

A further assay has as its system SK-Br3 cells. In words: MTT cell viability / isobologram analysis, SK-Br3. The assay is classed as cell-based, human. The protocol: FIG. 10. […] Cells in exponential growth were harvested, seeded at a concentration of ˜5×10^3 cells/200 μl/well into 96-well plates and allowed to attach overnight. […] Agents were studied in combination concurrently, and they were not renewed during the entire period of cell exposure. After treatment, the medium was removed and replaced by fresh drug-free medium (100 μl/well), and MTT (5 mg/ml in phosphate-buffered saline [PBS]) was added to each well at a 1/10 volume. After 2-3 hours at 37° C., the supernatants were removed, 100 μl of dimethylsulfoxide was added to each well, and the plates were agitated. Absorbances were measured at 570 nm using a multiwell plate reader (Model Anthos Labtec 2010 1.7 reader). The cell viability effects from exposure of cells to each agent alone and to their combination were analyzed by generating concentration-effect curves as a plot of the fraction of unaffected (surviving) cells versus drug concentration. Dose-response curves were plotted as percentages of the control cell absorbances, which were obtained from control wells treated with appropriate concentrations of vehicles that were processed simultaneously. For each treatment, cell viability was evaluated as a percentage using the following equation: (A570 of treated sample/A570 of untreated sample)×100. […] All statistical tests were two-sided. […]

The test system of the next assay is Breast Cancer Cells. In words: Effect of fatty acids, breast cancer cells (Table 2). Type of assay: cell-based. Conditions: FAS named only for oleic acid.
The test system of a further assay is Her-2/neu protein. The assay is described as follows: Immunoblot analysis of Her-2/neu protein. Type of assay: cell-based, human. (In general: A western blot detects proteins with antibodies after separation by electrophoresis.)

Turning to `CCCCCCCCC=CCCCCCCCC(=O)O` [OA, 9-octadecenoic acid], in the assay on BT-474 cells (OA 5 μM, trastuzumab 10 μg/ml, alone or simultaneously, 72 hours), the TUNEL-positive cells is recorded as 2%. Moreover, the “sensitization factor (IC50 without OA / IC50 with OA)” value with SK-Br3 cells (OA co-exposure, sensitization to trastuzumab) turned out to be 27 fold. The “Effect of Fatty Acids: Breast Cancer Cells” value in the assay on Breast Cancer Cells is “Down-regulates”. Further, the Her-2/neu protein levels entry in the assay on Her-2/neu protein (MCF-7/Her2-18 transfectants (SV40 promoter), OA treatment) is listed as “failed to decrease”; in the assay on Her-2/neu protein (MCF-7/neo cells, OA supplementation), “not significantly affected”. Besides, in the assay on Her-2/neu protein (SK-Br3, SK-OV3 and NCI-N87, OA 20 μM, 48 hours), the Her-2/neu protein expression entry was “down-regulation”.
As to `CCCCCC=CCC=CCC=CCCCCC(=O)O` [GLA, 6,9,12-octadecatrienoic acid], the “cells that underwent apoptosis (TUNEL)” value in the assay with BT-474 cells (GLA 10 μg/mL, trastuzumab 10 μg/mL, alone or together, 48 hours) is 5% (95% confidence interval [CI]=4% to 6%). Moreover, the “increase in sensitivity to trastuzumab” value in the assay with SK-Br3 cells (concurrent 10 μg/ml GLA) is recorded as approximately 40 fold. Also, the “Effect of Fatty Acids: Breast Cancer Cells” value in the assay with Breast Cancer Cells is “Potent Down-regulator”. For the same molecule, the Her-2/neu protein levels entry with Her-2/neu protein (BT-474 and SK-Br3, GLA 10 μg/mL for 48 hours) is listed as “substantial reduction”; in the assay with Her-2/neu protein (MDA-MB-231 (low Her-2/neu), GLA exposure) it was “did not affect”; in the assay on Her-2/neu protein (MDA-MB-453, SK-OV3 and NCI-N87, GLA 10 μg/mL for 48 hours) it was “markedly decreased”.
